Reference: EPA's CvTdb concentration-time database
“And” between values parts separate entries of the source, which are not always exact repeats. Identical values can stand only once.

Legend:
Assay in all cases: concentration in plasma after dosing
[1] = tested on: Rat; details: dosed: Tamoxifen citrate, 0.3 mg/kg, iv, Female, Sprague-Dawley
[2] = tested on: Rat; details: dosed: Tamoxifen citrate, 0.3 mg/kg, iv, Female, Sprague-Dawley; remark: listed apart in the source
[3] = tested on: Rat; details: dosed: Tamoxifen citrate, 0.3 mg/kg, iv, Male, Sprague-Dawley
[4] = tested on: Rat; details: dosed: Tamoxifen citrate, 0.3 mg/kg, iv, Sprague-Dawley
[5] = tested on: Rat; details: dosed: Tamoxifen citrate, 0.3 mg/kg, iv, Female, Sprague-Dawley; remark: listed apart in the source
[6] = tested on: Rat; details: dosed: Tamoxifen citrate, 0.3 mg/kg, iv, Female, Sprague-Dawley; remark: listed apart in the source
[7] = tested on: Rat; details: dosed: Tamoxifen citrate, 0.3 mg/kg, iv, Male, Sprague-Dawley; remark: listed apart in the source
[8] = tested on: Rat; details: dosed: Tamoxifen citrate, 0.3 mg/kg, iv, Male, Sprague-Dawley; remark: listed apart in the source
[9] = tested on: Rat; details: dosed: Tamoxifen citrate, 0.3 mg/kg, iv, Male, Sprague-Dawley; remark: listed apart in the source

CC/C(=C(\c1ccccc1)c1ccc(OCCN(C)C)cc1)c1ccccc1 [Tamoxifen, free base]
concentration in plasma [ng/mL]
Details | [1] | [2] | [3] | [5] | [6] | [7] | [8] | [9]
0.25 h | – | 10.6 | – | 9.8 | 19.2 | 23.4 | 27.8 | 17.9
0.5 h | – | 11.7 | – | 7.72 | 16.9 | 17.5 | 21.3 | 14
1 h | 11.8 | 7.86 | 5.39 | 6.48 | 12.4 | 11.1 | 12.5 | 9.45
2 h | 6.28 | 6.98 | 5.6 | 6.85 | 8.82 | 6.63 | 7.97 | 5.39
4 h | 4.6 | 4.36 | 5.43 | 5.08 | 4.36 | 4.12 | 4.45 | 13
8 h | – | – | 4.84 | – | – | – | – | –

concentration in plasma, [4]
Details | 0.25 h | 0.5 h | 1 h | 2 h | 4 h | 8 h
Female | 7.64 ng/mL and 17.2 ng/mL | 7.57 ng/mL and 13.4 ng/mL | 5.28 ng/mL | – | – | –
Male | 7.83 ng/mL | 8.42 ng/mL | 5.43 ng/mL | 4.66 ng/mL | 5.32 ng/mL | 5.19 ng/mL
